Patent US20030212254A1, “Use of an anion exchange resin (emp-7) as solid support for peptide synthesis and affinity chromatography” (priority 1999, published 2003)

Test system: monoclonal antibody specific for (NANP)3 / recombinant protein containing the repetitive domain (NANP)n interaction
Test: Inhibition ELISA: inhibition of the monoclonal antibody-recombinant protein interaction
Assay type: binding, mouse
Conditions: 2000 to 3,9 μg/ml peptide or peptide-resin; 2 h at room temperature; absorbance at 492 nm; FIG. 6
Procedure: In brief, the designed immunological experiment encompassed the following steps: the purified recombinant protein containing the repetitive domain (NANP)n of the circunsporozoite form of Plasmodium falciparum (v.g. Cell, 70, 1021-1033, [1992]) was added to Elisa's plate (200 ng/well) and maintained overnight at room temperature. After 3 washes with phosphate buffer containing 0,05% Tween-20, the plates were treated at 37° C. with PBS containing 5% disnatured milk and 1% serum bovine albumin. To calculate the degree of interaction of this recombinant protein with its antibody, the plates were treated with a specific monoclonal antibody for the (NANP)3 sequence obtained according to the reference in Science 228, 1436-1440 (1985), in a final concentration of 20 ng/ml. […] After 1 h of incubation at room temperature, the excess of labeled antibody was removed during the washings and the calorimetric reaction with o-phenilenediamine was developed and read at 492 nm. […]
100 μl of PBS were added to 2000 μg/ml to 3,9 μg/ml of free peptide (acetyl-NANP)3 or of {[(acetil-NANP)3]4-Eac4-(Lys)2-Lys-DEAE-Sephadex A50}resin. […] The absorbance of solutions was measured at 492 nm and the percentage of inhibition of this interaction antibody-recombinant protein induced by peptide-resin, resin or peptide was calculated according to the equation: […]

acetyl-(NANP)3 [free (acetyl-NANP)3]
inhibition of the antibody-recombinant protein interaction: highest inhibition
